Target: T1, human growth hormone secretagogue receptor (hGHS-R1a) (Homo sapiens, UniProt Q92847)
T1 construct: purchased PerkinElmer BioSignal #RBHGHSM; host or cells: HEK-293, stably transfected
Test: Competitive radioligand binding assay (ghrelin receptor), [125I]-ghrelin displacement on GHS-R/HEK 293 membranes;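 for Binding Activity at the Human Ghrelin Receptor (Ki): symbols B 10-100 nM C 0.1-1 µM D 1-10 µM F above 1 µM G above 10 µM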
Conditions: Table 3B; binding activity at the human ghrelin receptor; read-out: Ki

T1 sequence (Q92847 whole entry): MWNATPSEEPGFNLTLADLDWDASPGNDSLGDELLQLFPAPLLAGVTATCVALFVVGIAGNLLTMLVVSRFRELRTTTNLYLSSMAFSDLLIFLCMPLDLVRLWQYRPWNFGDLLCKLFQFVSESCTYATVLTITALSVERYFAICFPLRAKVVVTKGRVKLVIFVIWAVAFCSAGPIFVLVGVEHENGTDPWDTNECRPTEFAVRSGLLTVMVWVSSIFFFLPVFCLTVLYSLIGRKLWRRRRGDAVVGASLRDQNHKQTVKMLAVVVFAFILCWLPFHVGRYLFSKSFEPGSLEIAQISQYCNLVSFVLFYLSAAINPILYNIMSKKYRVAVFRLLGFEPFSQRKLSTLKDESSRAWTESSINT

| SMILES | Ki |
| --- | --- |
| CC[C@H](C)[C@@H]1NCCCCCCCCNC(=O)[C@H](Cc2cccc(Cl)c2)NC(=O)C2(CCCC2)NC1=O [compound 363] | 0.1 to 1 µM |
| CC1CNC(C2CC2)C(=O)N(C)C(C)C(=O)NC(Cc2ccc(F)cc2)C(=O)NCCCc2ccccc2O1 (centres unmarked) [compound 367] | 0.01 to 0.1 µM |

Same assay, conditions: Table 3E; read-out: Ki

| SMILES | Ki |
| --- | --- |
| C[C@@H]1C(=O)N[C@H](Cc2ccccc2)C(=O)NCCCc2ccccc2OCCN2CCCC[C@H]2C(=O)N1C [compound 226] | 0.01 to 0.1 µM |

Same assay, conditions: Table 4; TFA salts unless otherwise noted; read-out: Ki

| SMILES | Ki |
| --- | --- |
| COc1ccc(C[C@@H]2NC(=O)C3(CCCC3)NC(=O)[C@H](CC(C)C)NCCOc3ccccc3/C=C/CNC2=O)cc1 [compound 156] | 0.01 to 0.1 µM |
| C[C@@H]1C(=O)N[C@H](Cc2ccccc2)C(=O)NCCCc2ccccc2OCCN2CCCC[C@H]2C(=O)N1C [compound 226] | 0.01 to 0.1 µM |
| CC[C@H](C)[C@@H]1NCCCCCCCCNC(=O)[C@H](Cc2cccc(Cl)c2)NC(=O)C2(CCCC2)NC1=O [compound 363] | 0.1 to 1 µM |
| CC1CNC(C2CC2)C(=O)N(C)C(C)C(=O)NC(Cc2ccc(F)cc2)C(=O)NCCCc2ccccc2O1 (centres unmarked) [compound 367] | 0.01 to 0.1 µM |

Same assay, conditions: [125I]-ghrelin displacement, GHS-R/HEK 293 membranes; class symbols; read-out: Binding Activity at the Human Ghrelin Receptor (Ki)

| SMILES | Ki |
| --- | --- |
| COc1ccc(C[C@@H]2NC(=O)C3(CCCC3)NC(=O)[C@H](CC(C)C)NCCOc3ccccc3/C=C/CNC2=O)cc1 [compound 156] | 0.01 to 0.1 µM |
| C[C@@H]1C(=O)N[C@H](Cc2ccccc2)C(=O)NCCCc2ccccc2OCCN2CCCC[C@H]2C(=O)N1C [compound 226] | 0.01 to 0.1 µM |

Target: motilin receptor (Homo sapiens, UniProt O43193)
Test: Selectivity for the ghrelin receptor versus the motilin receptor
Format: binding
Conditions: not given
Text: The level of agonist activity and selectivity for representative compounds of the invention are shown below in Table 4.

Chain of motilin receptor (O43193 whole entry, species assumed): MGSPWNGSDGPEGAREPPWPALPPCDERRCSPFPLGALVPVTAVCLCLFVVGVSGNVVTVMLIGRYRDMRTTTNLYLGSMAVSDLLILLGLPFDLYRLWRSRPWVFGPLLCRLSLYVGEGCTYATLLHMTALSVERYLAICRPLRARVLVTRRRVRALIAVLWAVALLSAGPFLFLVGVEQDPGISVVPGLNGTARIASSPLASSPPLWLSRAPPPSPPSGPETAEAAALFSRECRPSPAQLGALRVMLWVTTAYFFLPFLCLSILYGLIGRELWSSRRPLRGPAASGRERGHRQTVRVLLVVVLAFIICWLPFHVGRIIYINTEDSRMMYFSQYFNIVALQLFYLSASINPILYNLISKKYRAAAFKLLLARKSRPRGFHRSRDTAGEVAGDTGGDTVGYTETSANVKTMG

| SMILES | Selectivity |
| --- | --- |
| CCCC1NCCOc2ccccc2CCCNC(=O)C(Cc2ccccc2)NC(=O)C(C)N(C)C1=O (centres unmarked) [Compound 4] | 3012/1 |
| CCC(C)C1NCCOc2ccccc2CCCNC(=O)C(Cc2ccccc2)NC(=O)C(C)N(C)C1=O (centres unmarked) [compound 15] | >1700/1 |
| CC[C@@H](C)[C@@H]1NCCOc2ccccc2CCCNC(=O)[C@@H](Cc2ccccc2)NC(=O)[C@@H](C)N(C)C1=O [compound 16] | >2000/1 |
| CC(C)C1NCCOc2ccccc2C=CCNC(=O)C(Cc2ccccc2)NC(=O)C(C)N(C)C1=O (centres unmarked) [compound 19] | >1700/1 |
| CC(C)C[C@@H]1NCCOc2ccccc2/C=C/CNC(=O)[C@H](Cc2ccccc2Cl)NC(=O)C2(CCCC2)NC1=O [compound 20] | 1044/1 |
| CCC(C)C1NCCOc2ccccc2CCCNC(=O)C(Cc2cccc(Cl)c2)NC(=O)C(C)N(C)C1=O (centres unmarked) [compound 24] | 3039/1 |
| CCC(C)C1NCCOc2ccccc2CCCNC(=O)C(Cc2ccc3ccccc3c2)NC(=O)C(C)N(C)C1=O (centres unmarked) [compound 31] | 4900/1 |
| CCC(C)C1NCCOc2ccccc2CCCNC(=O)C(Cc2cccs2)NC(=O)C(C)N(C)C1=O (centres unmarked) [compound 34] | >1000/1 |
| CCCC1NCCOc2ccccc2C=CCNC(=O)C(Cc2ccccc2)NC(=O)C(C)N(C)C1=O (centres unmarked) [compound 39] | 3400/1 |
| CCC(C)C1NCCOc2ccccc2C=CCNC(=O)C(Cc2ccccc2)NC(=O)C(C)N(C)C1=O (centres unmarked) [compound 40] | >3300/1 |
| CCC(C)C1NCCOc2ccccc2CCCNC(=O)C(Cc2ccccc2)NC(=O)C(C)N(C)C1=O (centres unmarked) [compound 42] | 4300/1 |
| CCC(C)C1NCCOc2ccccc2CCCNC(=O)C(Cc2ccccc2)NC(=O)C(C)N(CC)C1=O (centres unmarked) [compound 43] | 3700/1 |
| CCC(C)C1NCCOc2ccccc2CCCNC(=O)C(CC(C)C)NC(=O)C(C)N(C)C1=O (centres unmarked) [compound 176] | 105/1 |
| CC1(C)NC(=O)C2(CCCC2)NCCOc2ccccc2/C=C/CNC(=O)[C@H](Cc2cccc(Cl)c2)NC1=O [compound 334] | 346/1 |
| CC[C@H](C)[C@@H]1NCCCCCCCCNC(=O)[C@H](Cc2cccc(Cl)c2)NC(=O)C2(CCCC2)NC1=O [compound 363] | 35/1 |
| CCC(C)C1NCCOc2ccccc2C2CC2CNC(=O)C(Cc2cccc(Cl)c2)NC(=O)C2(CCCC2)NC1=O (centres unmarked) [compound 388] | 400/1 |
| CC1COc2ccccc2CCCNC(=O)C(Cc2ccc(F)cc2)NC(=O)C(C)N(C)C(=O)C(C2CC2)N1 (centres unmarked) [compound 394] | 1700/1 |

Target: T2, human ghrelin receptor (hGHS-R1a) (Homo sapiens, UniProt Q92847)
T2 construct: host or cells: CHO-K1 co-expressing Gα16 and mitochondrially targeted aequorin
Test: Aequorin functional assay (ghrelin receptor), CHO-K1 cells co-expressing Gα16 and aequorin
Format: cell-based
Conditions: Table 4; functional (agonist) activity; TFA salts unless otherwise noted; read-out: EC50
Protocol: This cell line is typically constructed by transfection of the human ghrelin receptor into CHO-K1 cells co-expressing Gα16 and the mitochondrially targeted Aequorin (Ref #ES-WT-A5). • 1. […] Assay buffer: DMEM (Dulbecco's Modified Eagles Medium) containing 0.1% BSA (bovine serum albumin; pH 7.0). • 3. Coelenterazine (Molecular Probes, Leiden, The Netherlands). • Final test concentrations (N=8) for compounds of the invention: 10, 1, 0.3, 0.1, 0.03, 0.01, 0.003, 0.001 μM.
Stock solutions of compounds (10 mM in 100% DMSO) were provided frozen on dry ice and stored at −20° C. prior to use. […] Assay plates were then prepared by appropriate dilution in DMEM medium containing 0.1% BSA. Under these conditions, the maximal final DMSO concentration in the assay was <0.6%.
AequoScreen™ cells were collected from culture plates with Ca^2+ and Mg^2+-free phosphate buffered saline (PBS) supplemented with 5 mM EDTA, pelleted for 2 min at 1000×g re-suspended in DMEM—Ham's F12 containing 0.1% BSA at a density of 5×10^6 cells/mL, and incubated O/N at rt in the presence of 5 μM coelenterazine. After loading, cells were diluted with assay buffer to a concentration of 5×10^5 cells/mL.
For agonist testing, 50 μL of the cell suspension was mixed with 50 μL of the appropriate concentration of test compound or ghrelin (reference agonist) in 96-well plates (duplicate samples). Ghrelin (reference agonist) was tested at several concentrations concurrently with the test compounds in order to validate the experiment. The emission of light resulting from receptor activation in response to ghrelin or test compounds was recorded using the Hamamatsu FDSS 6000 reader (Hamamatsu Photonics K.K., Japan).
Results were expressed as Relative Light Units (RLU). […] EC50, Hill slope and % Emax values are reported.
• 1. Assay performed on CHO-K1 cells expressing the transfected, cloned human ghrelin receptor (hGHS-R1a) and Gα16. • 2. Suspended cells incubated O/N with coelenterazine. • 3. Stimulation of hGHS-R1a activates Gα16, causing […] Ca2+ release which ultimately leads to the oxidation of coelenterazine and the emission of a quantitative luminescent signal. • 4. Ghrelin was used as the positive control. • 5.

T2 sequence (Q92847 whole entry): as the sequence (Q92847 whole entry) above

| SMILES | EC50 |
| --- | --- |
| COc1ccc(C[C@@H]2NC(=O)C3(CCCC3)NC(=O)[C@H](CC(C)C)NCCOc3ccccc3/C=C/CNC2=O)cc1 [compound 156] | 0.001 to 0.1 µM |
| C[C@@H]1C(=O)N[C@H](Cc2ccccc2)C(=O)NCCCc2ccccc2OCCN2CCCC[C@H]2C(=O)N1C [compound 226] | > 1 µM |
| CC1CNC(C2CC2)C(=O)N(C)C(C)C(=O)NC(Cc2ccc(F)cc2)C(=O)NCCCc2ccccc2O1 (centres unmarked) [compound 367] | 0.001 to 0.1 µM |
